The values that follow are results of earlier work, collected in article PMC10783014, “Structure-based virtual screening and in vitro validation of inhibitors of cyclic dinucleotide phosphodiesterases ENPP1 and CdnP” (Microbiology Spectrum, 2023).

This data set relates to CdnP. The following applies: cited from earlier work.

For the compound `COc1ccc([C@]2(C#N)CC[C@@H](C(=O)O)CC2)cc1OC1CCCC1` [cilomilast], the CdnP inhibition result was “demonstrated CdnP inhibition”.

For the compound `O=C1CCc2cc(OCCCCc3nnnn3C3CCCCC3)ccc2N1` [cilostazol], the CdnP inhibition result is on record as “demonstrated CdnP inhibition”.

Consider `CCCc1nn(C)c2c(=O)[nH]c(-c3cc(S(=O)(=O)N4CCN(C)CC4)ccc3OCC)nc12` [sildenafil], for which the CdnP inhibition entry is “demonstrated CdnP inhibition”.

For `CN1CC(=O)N2[C@H](c3ccc4c(c3)OCO4)c3[nH]c4ccccc4c3C[C@@H]2C1=O` [tadalafil], the CdnP inhibition entry is on record as “demonstrated CdnP inhibition”.
